What follows are molecules tested against T1, TrkA kinase domain (Homo sapiens, UniProt P04629) (assay: TrkA Kinase Assay (Trk kinase biochemical assay)). Conditions: 33 pM TrkA, 100 nM peptide substrate, 10 µM ATP; 15 minute preincubation; read-out: TrkA WT IC50.
T1 construct: TrkA kinase domain was supplied by SignalChem; purchased SignalChem
Experimental: Example 33: TrkA Kinase Assay Protocol
TrkA kinase domain was supplied by SignalChem. Ulight PolyGT peptide substrate and Europium labeled W1024 antiphosphotyrosine antibody were supplied by Perkin Elmer. Assay buffer contained 50 mM HEPES, 10 mM MgCb, 1 mM EGTA, 2 mM DTT, 0.1 mg/mL BSA, and 0.005% w/v tween 20, pH 7.5. Enzyme dilution buffer was made by supplementing assay buffer with 25% w/v glycerol. Antibody dilution buffer contained 20 mM Tris, 137 mM NaCl, and 0.05% w/v tween 20, pH 8.0. Buffers were prepared at room temperature. Enzyme solutions were made on ice, while other solutions were made at room temperature and all subsequent assay steps were performed at room temperature. The TrkA stock solution (0.1 mg/mL) was diluted 156× in enzyme dilution buffer and then 100× in assay buffer. Five pL/well of enzyme solution was added to the assay plate (Greiner black 384-well nonbinding plate), with buffer containing no enzyme added to negative control wells. Test compounds were serially diluted in DMSO at 300× final assay concentration. One μL of each test compound dilution was mixed with 99 pL assay buffer plus ATP (30 μM) and five pL of each test compound-ATP solution was added to w¾13s containing enzyme. Positive control wells contained enzyme and substrates but no test compounds. After a 15 minute enzyme-test compound preincubation, five pL of substrate diluted in assay buffer was added to all wells. Final assay concentrations were 33 pM TrkA, 100 nM peptide substrate, and […]. After a five minute reaction, five pL of 80 mM EDTA was added, followed five minutes later by five pL two nM antibody solution. The ratio of fluorescence at 665 nm vs. 615 nM in each well was determined using a Tecan Infinite Pro F200 plate reader. For each test compound well, percent inhibition w % s calculated (% inliib. =100-100*(test value-neg. control)/(pos. control-neg. control)). Percent inhibition values were fit to a four parameter logistic to determine ICso values for each test compound.

T1 sequence (P04629 510-781 limits assumed): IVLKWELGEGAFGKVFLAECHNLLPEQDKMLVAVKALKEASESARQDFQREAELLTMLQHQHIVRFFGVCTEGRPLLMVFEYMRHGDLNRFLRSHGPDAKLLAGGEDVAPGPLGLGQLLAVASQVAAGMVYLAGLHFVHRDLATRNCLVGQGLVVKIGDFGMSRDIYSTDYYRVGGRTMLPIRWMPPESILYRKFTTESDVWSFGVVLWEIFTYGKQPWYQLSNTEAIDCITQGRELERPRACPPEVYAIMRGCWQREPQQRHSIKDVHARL

SMILES	IC50 [nM]
Fc1ccc(F)c([C@H]2CCCN2c2ccn3ncc(-n4cc5c(n4)CCOC5)c3n2)c1 [I-183, (R)-2-(5-(2-(2,5-difluorophenyl)pyrrolidin-1-yl)pyrazolo[1,5-a]pyrimidin-3-yl)-2,4,6,7-tetrahydropyrano[4,3-c]pyrazole]	< 10
Fc1ccc(F)c([C@H]2CCCN2c2ccn3ncc(-n4cc(-c5cncc(OC6COC6)c5)cn4)c3n2)c1 [I-214, (R)-5-(2-(2,5-difluorophenyl)pyrrolidin-1-yl)-3-(4-(5-(oxetan-3-yloxy)pyridin-3-yl)-1H-pyrazol-1-yl)pyrazolo[1,5-a]pyrimidine]	< 10
Fc1ccc(F)c([C@H]2CCCN2c2ccn3ncc(-n4cc(-c5ccncc5)cn4)c3n2)c1 [I-160]	< 10
COc1ccncc1-c1cnn(-c2cnn3ccc(N4CCC[C@@H]4c4cc(F)ccc4F)nc23)c1 [I-201]	< 10
Fc1ccc(F)c([C@H]2CCCN2c2ccn3ncc(-n4cccn4)c3n2)c1 [I-152, (R)-5-(2-(2,5-difluorophenyI)pyrroIidin-1-yl)-3-(1H-pyrazol-1-yl)pyrazolo[1,5-a]pyrimidine]	< 10
N#Cc1cncc(-c2cnn(-c3cnn4ccc(N5CCC[C@@H]5c5cc(F)ccc5F)nc34)c2)c1 [I-191]	< 10
Cc1cnn(-c2cnn3ccc(N(C)[C@H](C)c4ccccc4)nc23)c1 [I-195, (R)—N-methyl-3-(4-methyl-1H-pyrazol-1-yl)-N-(1-phenylethyl)pyrazolo[1,5-a]pyrimidin-5-amine]	< 10
Fc1ccc(F)c([C@H]2CCCN2c2ccn3ncc(-n4cc(-c5cccnc5)cn4)c3n2)c1 [I-159]	< 10
OC1CCN(c2cnn(-c3cnn4ccc(N5CCC[C@@H]5c5ncccc5F)nc34)c2)C1 (stereo partly drawn) [I-209]	< 10
Fc1ccc(F)c([C@H]2CCCN2c2ccn3ncc(-n4cc(C5CCOCC5)cn4)c3n2)c1 [I-187, (R)-5-(2-(2,5-difluorophenyi)pyrrolidin-1-yl)-3-(4-(tetrahydro-2H-pyran-4-yl)-1H-pyrazol-1-yl)pyrazolo[1,5-a]pyrimidine]	< 10
Fc1ccc(F)c([C@H]2CCCN2c2ccn3ncc(-n4cc(-c5ccoc5)cn4)c3n2)c1 [I-189]	< 10
Fc1ccc(F)c([C@H]2CCCN2c2ccn3ncc(-n4cc(-c5ccc(F)nc5)cn4)c3n2)c1 [I-219, (R)-5-(2-(2,5-difluorophenyl)pyrrolidin-1-yl)-3-(4-(6-fluoropyridin-3-yl)-1H-pyrazol-1-yl)pyrazolo[1,5-a]pyrimidine]	< 10
CN(C)C(=O)Nc1cnn(-c2cnn3ccc(N4CCC[C@@H]4c4cc(F)ccc4F)nc23)c1 [I-197]	< 10
Fc1ccc(F)c([C@H]2CCCN2c2ccn3ncc(-n4cc(-c5ccccc5)cn4)c3n2)n1 [I-193]	< 10
COc1ncccc1-c1cnn(-c2cnn3ccc(N4CCC[C@@H]4c4cc(F)ccc4F)nc23)c1 [I-202]	< 10
COc1ccc(-c2cnn(-c3cnn4ccc(N[C@H](C)c5cc(F)ccc5F)nc34)c2)cn1 [I-220, (R)—N-(1-(2,5-difluor®phenyl)ethyl)-3-(4-(6-methoxypyridin-3-yl)-1H-pyrazoI-1-yl)pyrazolo[1,5-a]pyrimidin-5-amine]	< 10
COc1cncc(-c2cnn(-c3cnn4ccc(N5CCC[C@@H]5c5cc(F)ccc5F)nc34)c2)c1 [I-161]	< 10
COCc1cnn(-c2cnn3ccc(N4CCC[C@@H]4c4cc(F)ccc4F)nc23)c1 [I-226]	< 10
Cc1cnn(-c2cnn3ccc(N4CCC[C@@H]4c4cc(F)ccc4F)nc23)c1 [I-148]	< 10
Fc1ccc(F)c([C@H]2CCCN2c2ccn3ncc(-n4cc(-c5ccccc5)cn4)c3n2)c1 [I-149]	< 10
COc1cnn(-c2cnn3ccc(N4CCC[C@@H]4c4cc(F)ccc4F)nc23)c1 [I-172]	< 10
Cc1cnn(-c2cnn3ccc(N[C@H](C)c4ccccc4)nc23)c1 [I-196]	< 10
CP(C)(=O)c1cnn(-c2cnn3ccc(N4CCC[C@@H]4c4cc(F)ccc4F)nc23)c1 [I-174, (R)-(1-(5-(2-(2,5-difluorophenyl)pyrrolidm-1-yl)pyrazolo[1,5-a]pyrimidin-3-yl)-1H-pyrazol-4-yl)dimethylphosphine-oxide]	< 10
COc1cnccc1-c1cnn(-c2cnn3ccc(N4CCC[C@@H]4c4cc(F)ccc4F)nc23)c1 [I-204]	< 10
OCCc1cnn(-c2cnn3ccc(N4CCC[C@@H]4c4cc(F)ccc4F)nc23)c1 [I-156]	< 10
Fc1ccc(F)c([C@H]2CCCN2c2ccn3ncc(-n4cc(-c5ccncc5)cn4)c3n2)n1 [I-207]	< 10
COc1ccc(F)c([C@H]2CCCN2c2ccn3ncc(-n4cc(C)cn4)c3n2)n1 [I-216, (R)-5-(2-(3-fluoro-6-methoxypyridin-2-yl)pyrrolidin-1-yl)-3-(4-methyl-1H-pyrazoI-1-yl)pyrazolo[1,5-a]pyrimidine]	< 10
Cc1nnc(-c2cnn(-c3cnn4ccc(N5CCC[C@@H]5c5cc(F)ccc5F)nc34)c2)o1 [I-178, (R)-2-(1-(5-(2-(2,5-difluorophenyl)pyrrolidin-1-yl)pyrazolo[1,5-a]pyrimidin-3-yl)-1H-pyrazol-4-yl)-5-methyl-1,3,4-oxadiazole]	< 10
COCCOCc1cnn(-c2cnn3ccc(N4CCC[C@@H]4c4cc(F)ccc4F)nc23)c1 [I-180, (R)-5-(2-(2,5-difluerophenyl)pyrrolidin-1-yl)-3-(4-((2-methoxyethoxy)methyl)-1H-pyrazol-1-yl)pyrazolo[1,5-a]pyrimidine]	< 10
Fc1ccc(F)c([C@H]2CCCN2c2ccn3ncc(-n4cc(C(F)F)cn4)c3n2)c1 [I-176, (R)-3-(4-(difluor®methyl)-1H-pyrazol-1-yl)-5-(2-(2,5-difluorophenyl)pyrrolidin-˜yl)pyrazolo[1,5-a]pyriniidine]	< 10

— patent US12486276B2, “5-(2,5-difluorophenyl)pyrrolidin-1-yl)-3-(1H-pyrazol-1-yl)pyrazolo[1,5-a]pyrimidine derivatives and related compounds as Trk kinase inhibitors for treating cancer” (Pyramid Biosciences, Inc., priority 2017, dated 2025)
